# Assay results published in publication PMC7979765, “trans-Translation inhibitors bind to a novel site on the ribosome and clear Neisseria gonorrhoeae in vivo” (Nature Communications, 2021).
# Values joined by “and” are separate entries in the source; they are usually repeats but may differ in a detail not shown here. Equal entries are not always repeated. Where two headings read alike, the source gives them in different places.
# Experiments:
# Muscarinic M3 = target: T1, Muscarinic M3 (Homo sapiens, UniProt P20309); assay: Receptor Profiling 252810; format: binding
# T1 construct: purchased Eurofins Discovery Services (Panlabs safety panel)
# T1 sequence (P20309 whole entry): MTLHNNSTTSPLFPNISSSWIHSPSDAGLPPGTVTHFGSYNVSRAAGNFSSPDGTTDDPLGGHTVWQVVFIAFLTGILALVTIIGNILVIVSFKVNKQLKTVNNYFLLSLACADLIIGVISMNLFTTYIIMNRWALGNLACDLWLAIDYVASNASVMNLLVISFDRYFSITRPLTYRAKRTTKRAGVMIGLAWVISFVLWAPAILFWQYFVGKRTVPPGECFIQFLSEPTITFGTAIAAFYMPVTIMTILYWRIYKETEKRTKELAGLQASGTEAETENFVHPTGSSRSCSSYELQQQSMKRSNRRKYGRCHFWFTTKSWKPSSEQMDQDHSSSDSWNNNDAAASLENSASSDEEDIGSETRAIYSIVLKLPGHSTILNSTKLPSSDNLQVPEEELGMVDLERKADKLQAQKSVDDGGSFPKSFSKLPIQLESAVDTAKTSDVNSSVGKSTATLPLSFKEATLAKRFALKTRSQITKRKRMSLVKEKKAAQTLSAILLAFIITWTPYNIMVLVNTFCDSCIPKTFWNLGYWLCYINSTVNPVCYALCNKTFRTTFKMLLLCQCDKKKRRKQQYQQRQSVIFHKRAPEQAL
# Experimental: (§1) Several in vitro selectivity assays were performed at Eurofins Discovery Services using established methods and controls that behaved as expected (Supplementary Tables 5 and 6). […] For receptor panel profiling, MBX-4132 was evaluated at 10 μM and activity of >50% (agonist or antagonist; note that negative % inhibition indicates agonism) was scored as active.
# [1] = system: N. gonorrhoeae strain 49226 (ATCC); assay: Frequency of resistance; format: cell-based, Neisseria gonorrhoeae; conditions: selection at 4x and 8x MIC
# CYP2C9 = target: T2, CYP2C9 (Homo sapiens, UniProt P11712); assay: Cyp inhibition assay 4878; format: in vitro ADME; conditions: catalog reference 4878
# T2 construct: Eurofins Discovery Services (contract assay) 4878
# T2 sequence (P11712 whole entry): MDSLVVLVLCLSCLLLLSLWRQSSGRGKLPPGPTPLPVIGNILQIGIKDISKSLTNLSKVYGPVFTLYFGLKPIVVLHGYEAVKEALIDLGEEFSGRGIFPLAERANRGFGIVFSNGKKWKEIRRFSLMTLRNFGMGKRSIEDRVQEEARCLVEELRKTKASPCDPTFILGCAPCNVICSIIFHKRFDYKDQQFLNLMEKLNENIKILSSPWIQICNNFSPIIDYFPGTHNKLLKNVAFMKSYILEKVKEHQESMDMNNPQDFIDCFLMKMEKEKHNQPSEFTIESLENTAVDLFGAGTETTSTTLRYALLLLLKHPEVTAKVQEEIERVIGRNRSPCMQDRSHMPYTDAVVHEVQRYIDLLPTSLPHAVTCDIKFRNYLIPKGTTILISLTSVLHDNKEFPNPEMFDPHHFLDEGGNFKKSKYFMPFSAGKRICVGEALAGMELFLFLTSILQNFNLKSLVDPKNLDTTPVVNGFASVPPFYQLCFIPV
# Experimental: as §1
# Moraxella catarrhalis = assay: MIC, microbroth dilution; format: cell-based
# [2] = target: T3, Cholinesterase, Acetyl, ACES (Homo sapiens, UniProt P22303); assay: Receptor Profiling 104010; format: biochemical
# T3 construct: Eurofins Discovery Services (contract assay) 104010
# T3 sequence (P22303 32-614): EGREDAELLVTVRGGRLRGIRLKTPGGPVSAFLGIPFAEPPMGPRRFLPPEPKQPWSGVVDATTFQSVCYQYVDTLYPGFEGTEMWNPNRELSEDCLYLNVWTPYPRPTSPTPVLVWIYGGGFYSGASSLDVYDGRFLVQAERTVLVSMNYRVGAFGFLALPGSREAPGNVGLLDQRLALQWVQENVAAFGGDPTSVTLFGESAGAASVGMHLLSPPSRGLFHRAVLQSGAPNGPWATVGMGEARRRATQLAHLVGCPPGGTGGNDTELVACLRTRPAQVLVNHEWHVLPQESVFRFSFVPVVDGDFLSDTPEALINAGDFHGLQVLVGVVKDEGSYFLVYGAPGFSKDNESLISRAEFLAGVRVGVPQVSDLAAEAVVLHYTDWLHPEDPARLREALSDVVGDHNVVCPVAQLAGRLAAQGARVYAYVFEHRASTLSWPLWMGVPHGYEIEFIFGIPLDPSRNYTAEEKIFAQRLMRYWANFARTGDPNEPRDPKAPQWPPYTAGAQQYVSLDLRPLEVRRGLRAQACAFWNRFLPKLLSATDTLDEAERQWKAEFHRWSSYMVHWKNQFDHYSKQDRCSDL
# Experimental: as §1
# Legionella pneumophila = assay: microbe, parasite or virus in culture; format: cell-based
# [3] = target: T4, Transporter, Norepinephrine (NET) (Homo sapiens, UniProt P23975); assay: Receptor Profiling 204410; format: binding
# T4 construct: purchased Eurofins Discovery Services 204410
# T4 sequence (P23975 whole entry): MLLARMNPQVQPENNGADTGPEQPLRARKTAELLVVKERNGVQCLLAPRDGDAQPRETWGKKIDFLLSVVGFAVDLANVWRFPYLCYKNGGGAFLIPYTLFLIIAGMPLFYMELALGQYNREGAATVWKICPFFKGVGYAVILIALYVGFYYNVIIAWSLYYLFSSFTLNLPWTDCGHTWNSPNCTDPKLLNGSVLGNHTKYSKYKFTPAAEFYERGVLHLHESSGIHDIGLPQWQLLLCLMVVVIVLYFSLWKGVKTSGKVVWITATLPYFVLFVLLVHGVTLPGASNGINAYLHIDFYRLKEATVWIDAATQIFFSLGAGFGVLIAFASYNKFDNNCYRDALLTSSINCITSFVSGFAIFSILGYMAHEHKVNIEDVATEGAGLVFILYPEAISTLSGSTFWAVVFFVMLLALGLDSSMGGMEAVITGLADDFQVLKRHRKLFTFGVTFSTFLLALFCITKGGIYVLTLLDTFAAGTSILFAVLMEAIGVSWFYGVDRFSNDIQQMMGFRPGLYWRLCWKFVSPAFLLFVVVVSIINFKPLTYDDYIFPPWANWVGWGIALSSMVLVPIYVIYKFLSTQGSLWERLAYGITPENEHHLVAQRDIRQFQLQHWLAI
# Experimental: as §1
# [4] = Serum protein binding, human; format: in vitro ADME; conditions: read-out: Serum binding (% bound) Human (converted)
# Experimental: Serum protein binding was determined using an equilibrium dialysis method as described. The amount of compound in each chamber (buffer and serum) was measured using methods for reverse-phase liquid chromatography/mass spectroscopy methods that were customized for each compound.
# [5] = target: T5, Cholecystokinin CKK1 (CCKA) (Homo sapiens, UniProt P32238); assay: Receptor Profiling 218030; format: binding
# T5 construct: purchased Eurofins Discovery Services (Panlabs safety panel)
# Experimental: as §1
# Histamine H2 = target: T6, Histamine H2 (Homo sapiens, UniProt P25021); assay: Receptor Profiling 239710; format: binding
# T6 construct: purchased Eurofins Discovery Services (Panlabs safety panel)
# Experimental: as §1
# CYP450 enzymes = assay: CYP450 inhibition assays (panel statement); format: in vitro ADME, human; conditions: 5 concentrations from 30 nM to 100 μM
# Experimental: as §1
# [6] = target: T7, Nicotinic Acetylcholine α4β2, Cytisine (Homo sapiens, UniProt P17787+P43681); assay: Receptor Profiling 299031; format: binding
# T7 construct: purchased Eurofins Discovery Services (Panlabs safety panel)
# T7 sequence (P43681 29-627 limits assumed): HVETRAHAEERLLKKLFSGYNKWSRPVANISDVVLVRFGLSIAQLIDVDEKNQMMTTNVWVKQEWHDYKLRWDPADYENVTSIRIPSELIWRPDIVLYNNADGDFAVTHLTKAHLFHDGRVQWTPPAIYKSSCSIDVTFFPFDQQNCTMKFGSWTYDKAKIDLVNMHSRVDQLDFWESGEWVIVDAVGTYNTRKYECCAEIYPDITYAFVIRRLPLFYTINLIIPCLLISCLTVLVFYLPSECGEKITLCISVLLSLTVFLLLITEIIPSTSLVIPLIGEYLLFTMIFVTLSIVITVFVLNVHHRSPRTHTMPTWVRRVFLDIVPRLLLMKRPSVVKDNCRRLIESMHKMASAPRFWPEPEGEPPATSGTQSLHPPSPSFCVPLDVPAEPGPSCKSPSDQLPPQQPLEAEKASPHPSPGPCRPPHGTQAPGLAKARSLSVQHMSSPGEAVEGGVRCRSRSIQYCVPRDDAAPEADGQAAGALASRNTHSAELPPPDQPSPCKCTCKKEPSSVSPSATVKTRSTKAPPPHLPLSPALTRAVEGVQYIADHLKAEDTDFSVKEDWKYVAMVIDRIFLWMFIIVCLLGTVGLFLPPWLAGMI
# T7 sequence (P17787 26-502): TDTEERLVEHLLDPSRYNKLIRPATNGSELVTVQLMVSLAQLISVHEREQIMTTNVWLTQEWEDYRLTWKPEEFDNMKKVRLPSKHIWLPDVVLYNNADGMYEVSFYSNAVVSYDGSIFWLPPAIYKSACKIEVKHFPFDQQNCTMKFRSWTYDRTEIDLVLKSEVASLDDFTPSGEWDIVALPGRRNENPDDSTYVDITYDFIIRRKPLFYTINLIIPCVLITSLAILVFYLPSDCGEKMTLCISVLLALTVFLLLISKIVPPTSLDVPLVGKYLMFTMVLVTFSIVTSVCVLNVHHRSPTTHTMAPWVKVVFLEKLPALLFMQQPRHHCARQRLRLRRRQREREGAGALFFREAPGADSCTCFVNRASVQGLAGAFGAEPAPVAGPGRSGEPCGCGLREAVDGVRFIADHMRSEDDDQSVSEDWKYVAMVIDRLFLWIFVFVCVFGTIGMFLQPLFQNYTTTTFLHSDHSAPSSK
# Experimental: as §1
# [7] = system: N. gonorrhoeae ATCC 49226; assay: Time-kill assay
# [8] = Liver microsome stability, dog; format: in vitro ADME; conditions: for half-life: dog, liver microsomes
# Experimental: To examine potential for first-pass metabolism of analogs in the liver, the stability of analogs in the presence of liver microsome preparations (Eurofins Discovery for human, dog and rat; Xenotech for mouse) was measured using the method of Kuhnz, et al.[50]. for murine studies and Oback for the dog, human and rat studies. The amount of parent compound remaining after incubation with microsomes in the presence of NADPH over a 30 min time range was measured using a reverse-phase liquid chromatography/mass spectroscopy method that was customized for each compound. Half-lives were calculated using linear regression analysis of several time points.
# Cannabinoid CB1 = target: T8, Cannabinoid CB1 (Homo sapiens, UniProt P21554); assay: Receptor Profiling 217050; format: binding
# T8 construct: purchased Eurofins Discovery Services (Panlabs safety panel)
# T8 sequence (P21554 whole entry): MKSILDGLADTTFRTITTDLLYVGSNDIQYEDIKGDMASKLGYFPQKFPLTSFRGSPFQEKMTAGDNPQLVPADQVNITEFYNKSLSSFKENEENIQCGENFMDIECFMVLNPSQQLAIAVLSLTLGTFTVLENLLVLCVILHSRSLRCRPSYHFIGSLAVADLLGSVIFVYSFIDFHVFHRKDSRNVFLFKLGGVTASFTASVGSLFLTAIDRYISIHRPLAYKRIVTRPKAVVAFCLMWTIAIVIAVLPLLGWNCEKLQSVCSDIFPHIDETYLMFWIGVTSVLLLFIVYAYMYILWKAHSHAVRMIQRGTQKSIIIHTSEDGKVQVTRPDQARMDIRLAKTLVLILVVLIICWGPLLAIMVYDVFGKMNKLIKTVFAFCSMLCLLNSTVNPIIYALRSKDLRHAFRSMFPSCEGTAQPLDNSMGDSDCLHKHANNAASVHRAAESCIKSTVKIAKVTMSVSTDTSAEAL
# Experimental: as §1
# Vasopressin V1A = target: T9, Vasopressin V1A (Homo sapiens, UniProt P37288); assay: Receptor Profiling 287530; format: binding
# T9 construct: purchased Eurofins Discovery Services 287530
# T9 sequence (P37288 whole entry): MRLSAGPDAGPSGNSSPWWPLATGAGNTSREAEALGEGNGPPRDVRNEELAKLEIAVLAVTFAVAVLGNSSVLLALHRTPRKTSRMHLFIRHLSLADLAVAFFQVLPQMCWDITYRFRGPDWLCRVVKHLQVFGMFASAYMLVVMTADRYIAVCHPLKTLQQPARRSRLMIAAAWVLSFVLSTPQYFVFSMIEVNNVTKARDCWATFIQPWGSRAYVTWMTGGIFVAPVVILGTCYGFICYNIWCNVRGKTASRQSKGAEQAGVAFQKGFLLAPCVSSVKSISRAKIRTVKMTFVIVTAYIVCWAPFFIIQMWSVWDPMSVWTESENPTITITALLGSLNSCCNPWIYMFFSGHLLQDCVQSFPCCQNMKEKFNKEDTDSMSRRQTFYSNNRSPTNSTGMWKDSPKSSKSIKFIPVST
# Experimental: as §1
# CYP2C8 = target: T10, CYP2C8 (Homo sapiens, UniProt P10632); assay: Cyp inhibition assay 4879; format: in vitro ADME; conditions: catalog reference 4879, read-out: pIC50 (µM) reported (converted)
# T10 construct: Eurofins Discovery Services (contract assay) 4879
# Experimental: as §1
# Opiate Mu (OP3, MOP) = target: T11, Opiate Mu (OP3, MOP) (Homo sapiens, UniProt P35372); assay: Receptor Profiling 260410; format: binding
# T11 construct: purchased Eurofins Discovery Services (Panlabs safety panel)
# T11 sequence (P35372 whole entry): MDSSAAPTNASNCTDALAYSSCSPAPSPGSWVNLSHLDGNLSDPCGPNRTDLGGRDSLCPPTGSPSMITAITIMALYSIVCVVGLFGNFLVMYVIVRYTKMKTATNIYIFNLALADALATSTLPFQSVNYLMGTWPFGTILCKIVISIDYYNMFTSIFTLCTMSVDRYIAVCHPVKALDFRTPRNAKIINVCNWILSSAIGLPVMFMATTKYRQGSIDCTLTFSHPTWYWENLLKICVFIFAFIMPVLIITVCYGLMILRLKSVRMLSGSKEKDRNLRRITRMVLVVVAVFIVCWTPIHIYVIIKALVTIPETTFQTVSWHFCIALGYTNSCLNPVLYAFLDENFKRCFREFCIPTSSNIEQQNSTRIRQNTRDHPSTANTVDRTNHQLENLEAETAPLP
# Experimental: as §1
# Potassium Channel [KA] = assay: Receptor Profiling 265510; format: binding, rat; conditions: 10 μM
# Experimental: as §1
# [9] = target: T12, Serotonin (5-hydroxytryptamine) 5-HT3 (Homo sapiens, UniProt P46098); assay: Receptor Profiling 271910; format: binding
# T12 construct: Eurofins Discovery Services (contract assay) 271910
# Experimental: as §1
# Mycoplasma pneumoniae = assay: MIC, microbroth dilution; format: cell-based
smiles,measurement,setting,value
O=C(Nc1nnc(-c2ccc(F)cc2)o1)N1CCc2ccccc2C1 [MBX-4132],inhibition at 10 µM,Muscarinic M3,5%
same,frequency of spontaneous mutants resistant,[1],< 1.2 × 10^−9
same,pIC50 (µM) reported,CYP2C9,No activity
same,MIC,"Moraxella catarrhalis; Moraxella catarrhalis 8716, replicates",0.0332 µg/mL
same,MIC,"Moraxella catarrhalis; Moraxella catarrhalis, Moraxella catarrhalis 8716, replicates, read-out: MIC",0.0332 µg/mL
same,MIC,"Moraxella catarrhalis; Moraxella catarrhalis, strain 8716, read-out: MIC",0.04 µg/mL
same,inhibition at 10 µM,[2],6%
same,MIC,"Legionella pneumophila; Legionella pneumophila ATCC 33153, replicates",8.50 µg/mL
same,MIC,"Legionella pneumophila; Legionella pneumophila, ATCC33153",8.5 µg/mL
same,inhibition at 10 µM,[3],6%
same,fraction unbound,"[4]; Average Value, Eurofins",0.009
same,fraction unbound,"[4]; Replicate 1/2, Eurofins",0.017 and 0.002
same,fraction unbound,"[4]; Reported value, Eurofins",0.01
same,inhibition at 10 µM,[5],66%
same,inhibition at 10 µM,Histamine H2,-7%
same,CYP450 inhibitory activity (in words),CYP450 enzymes,no inhibitory activity >50%
same,inhibition at 10 µM,[6],-5%
same,AVE CFU/ml,"[7]; 1X MIC, 0 h",9800000 CFU/ml
same,AVE CFU/ml,"[7]; 1X MIC, 1 h",7.80E+06 CFU/ml and 7800000 CFU/ml
same,"CFU/mL, replicates 1-3","[7]; 1X MIC, 1 h",7400000 CFU/mL and 6800000 CFU/mL and 9200000 CFU/mL
same,AVE CFU/ml,"[7]; 1X MIC, 2 h",3.60E+06 CFU/ml and 3600000 CFU/ml
same,"CFU/mL, replicates 1-3","[7]; 1X MIC, 2 h",3800000 CFU/mL and 3600000 CFU/mL and 3400000 CFU/mL
same,AVE CFU/ml,"[7]; 1X MIC, 4 h",5133333 CFU/ml and 5.13E+06 CFU/ml
same,"CFU/mL, replicates 1-3","[7]; 1X MIC, 4 h",5800000 CFU/mL and 5200000 CFU/mL and 4400000 CFU/mL
same,AVE CFU/ml,"[7]; 1X MIC, 6 h",6200000 CFU/ml and 6.20E+06 CFU/ml
same,"CFU/mL, replicates 1-3","[7]; 1X MIC, 6 h",6000000 CFU/mL and 5800000 CFU/mL and 6800000 CFU/mL
same,AVE CFU/ml,"[7]; 1X MIC, 8 h",1173333 CFU/ml
same,AVE CFU/ml,"[7]; 1X MIC, 8 h, listed as 4132",1.17E+06 CFU/ml
same,"CFU/mL, replicates 1-3","[7]; 1X MIC, 8 h, listed as 4132",1120000 CFU/mL and 1160000 CFU/mL and 1240000 CFU/mL
same,AVE CFU/ml,"[7]; 1X MIC, 24 h",6866667 CFU/ml and 6.87E+06 CFU/ml
same,"CFU/mL, replicates 1-3","[7]; 1X MIC, 24 h",7400000 CFU/mL and 6400000 CFU/mL and 6800000 CFU/mL
same,AVE CFU/ml,"[7]; 4X MIC, 0 h",9800000 CFU/ml
same,AVE CFU/ml,"[7]; 4X MIC, 1 h",5.73E+06 CFU/ml and 5733333 CFU/ml
same,"CFU/mL, replicates 1-3","[7]; 4X MIC, 1 h",6400000 CFU/mL and 5600000 CFU/mL and 5200000 CFU/mL
same,AVE CFU/ml,"[7]; 4X MIC, 2 h",3.73E+06 CFU/ml and 3733333 CFU/ml
same,"CFU/mL, replicates 1-3","[7]; 4X MIC, 2 h",3600000 CFU/mL and 3400000 CFU/mL and 4200000 CFU/mL
same,AVE CFU/ml,"[7]; 4X MIC, 4 h",2733333 CFU/ml and 2.73E+06 CFU/ml
same,"CFU/mL, replicates 1-3","[7]; 4X MIC, 4 h",2400000 CFU/mL (2×) and 3400000 CFU/mL
same,AVE CFU/ml,"[7]; 4X MIC, 6 h",2866667 CFU/ml and 2.87E+06 CFU/ml
same,"CFU/mL, replicates 1-3","[7]; 4X MIC, 6 h",3000000 CFU/mL (2×) and 2600000 CFU/mL
same,AVE CFU/ml,"[7]; 4X MIC, 8 h",760000 CFU/ml and 7.60E+05 CFU/ml
same,"CFU/mL, replicates 1-3","[7]; 4X MIC, 8 h",780000 CFU/mL and 800000 CFU/mL and 700000 CFU/mL
same,AVE CFU/ml,"[7]; 4X MIC, 24 h",0 CFU/ml and 0.00E+00 CFU/ml
same,"CFU/mL, replicates 1-3","[7]; 4X MIC, 24 h",0 CFU/mL
same,AVE CFU/ml,"[7]; 8X MIC, 0 h",9800000 CFU/ml
same,AVE CFU/ml,"[7]; 8X MIC, 1 h",5.13E+06 CFU/ml and 5133333 CFU/ml
same,"CFU/mL, replicates 1-3","[7]; 8X MIC, 1 h",5200000 CFU/mL and 4600000 CFU/mL and 5600000 CFU/mL
same,AVE CFU/ml,"[7]; 8X MIC, 2 h",4.93E+06 CFU/ml and 4933333 CFU/ml
same,"CFU/mL, replicates 1-3","[7]; 8X MIC, 2 h",5400000 CFU/mL and 5200000 CFU/mL and 4200000 CFU/mL
same,AVE CFU/ml,"[7]; 8X MIC, 4 h",3000000 CFU/ml and 3.00E+06 CFU/ml
same,"CFU/mL, replicates 1-3","[7]; 8X MIC, 4 h",3000000 CFU/mL and 2800000 CFU/mL and 3200000 CFU/mL
same,AVE CFU/ml,"[7]; 8X MIC, 6 h",993333 CFU/ml and 9.93E+05 CFU/ml
same,"CFU/mL, replicates 1-3","[7]; 8X MIC, 6 h",1060000 CFU/mL and 940000 CFU/mL and 980000 CFU/mL
same,AVE CFU/ml,"[7]; 8X MIC, 8 h",433333 CFU/ml and 4.33E+05 CFU/ml
same,"CFU/mL, replicates 1-3","[7]; 8X MIC, 8 h",400000 CFU/mL and 480000 CFU/mL and 420000 CFU/mL
same,AVE CFU/ml,"[7]; 8X MIC, 24 h",0 CFU/ml and 0.00E+00 CFU/ml
same,"CFU/mL, replicates 1-3","[7]; 8X MIC, 24 h",0 CFU/mL
same,MIC,"[7]; Neisseria gonorrhoeae, ATCC49226",0.5 µg/mL
same,bactericidal concentration,"[7]; time-kill, N. gonorrhoeae",≥ 4 X MIC
same,"Microsomal stability (t½, min) Dog","[8]; Replicate 1/2, Eurofins",>>60 min
same,half-life,"[8]; Average Value, Eurofins, read-out: Microsomal stability (t½, min) Dog",> 60 min
same,half-life,"[8]; Replicate 1/2, Eurofins, read-out: Microsomal stability (t½, min) Dog",> 60 min
same,half-life,"[8]; Reported value, Eurofins, read-out: Microsomal stability (t½, min) Dog",> 120 min
same,half-life,[8]; read-out: Microsomal Stability (t1/2; min) Dog,> 120 min
same,inhibition at 10 µM,Cannabinoid CB1,-4%
same,inhibition at 10 µM,Vasopressin V1A,-4%
same,IC50,CYP2C8,> 100 µM
same,inhibition at 10 µM,"Opiate Mu (OP3, MOP)",17%
same,% inhibition,Potassium Channel [KA],-2%
same,inhibition at 10 µM,[9],4%
same,MIC,"Mycoplasma pneumoniae; Mycoplasma pneumoniae ATCC 15531, replicates",≥34 µg/mL
same,MIC,"Mycoplasma pneumoniae; Mycoplasma, ATCC15531, strain ATCC 15531, read-out: MIC",≥ 34 µg/mL
